# According to PubChem BioAssay (NCI):
#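 Compound exposure: 48 hours, 5 concentrations, 96-well plates. At the GI50, growth is halved. TGI: total growth inhibition.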
# Legend:
# Experiment in all cases: NCI anticancer screen, dose series, 48 h
# [1] = tested on: OVCAR-5 ovarian
# [2] = tested on: UACC-62 melanoma
# [3] = tested on: MOLT-4 leukemia
# [4] = tested on: MCF7 breast
# [5] = tested on: OVCAR-4 ovarian
# [6] = tested on: OVCAR-3 ovarian
# [7] = tested on: SNB-19 CNS
# [8] = tested on: HCT-15 colon
# [9] = tested on: ACHN renal
# [10] = tested on: DU-145 prostate
# [11] = tested on: NCI-H522 lung
# [12] = tested on: EKVX NSCLC
# [13] = tested on: SK-OV-3 ovarian
# [14] = tested on: SK-MEL-5 melanoma
# [15] = tested on: SF-539 CNS
# [16] = tested on: MDA-MB-231 breast
# [17] = tested on: RXF 393 renal
# [18] = tested on: NCI-H460 lung
# [19] = tested on: COLO 205 colon
# [20] = tested on: A549 NSCLC
# [21] = tested on: IGROV1 ovarian
# [22] = tested on: HOP-92 NSCLC
# [23] = tested on: UO-31 renal
# [24] = tested on: SF-268 CNS
# [25] = tested on: UACC-257 melanoma
# [26] = tested on: CAKI-1 renal
# [27] = tested on: SN12C renal
# [28] = tested on: NCI-H23 lung
# [29] = tested on: KM12 colon
# [30] = tested on: NCI-H226 lung
# [31] = tested on: HOP-62 NSCLC
# [32] = tested on: M14 melanoma
# [33] = tested on: MALME-3M melanoma
# [34] = tested on: RPMI-8226 leukemia
# [35] = tested on: LOX IMVI melanoma
# [36] = tested on: 786-0 renal
# [37] = tested on: SK-MEL-2 melanoma
# [38] = tested on: HL-60(TB) leukemia
# [39] = tested on: MDA-MB-435
# [40] = tested on: PC-3 prostate
# [41] = tested on: SK-MEL-28 melanoma
# [42] = tested on: SW-620 colon
# [43] = tested on: T-47D breast
# [44] = tested on: OVCAR-8 ovarian
# [45] = tested on: U251 CNS
# [46] = tested on: SNB-75 CNS
# [47] = tested on: HT29 colon
# [48] = tested on: SF-295 CNS
# [49] = tested on: NCI/ADR-RES ovarian
# [50] = tested on: K-562 leukemia
# [51] = tested on: HS 578T breast
# [52] = tested on: SR leukemia
# [53] = tested on: BT-549 breast
# [54] = tested on: HCC-2998 colon
# [55] = tested on: CCRF-CEM leukemia
# [56] = tested on: HCT-116 colon
# [57] = tested on: TK-10 renal
smiles,measurement,setting,value
Oc1cc2ccccc2cc1-c1n[nH]c(=S)n1CCc1ccccc1,GI50,[1],24.1 µM
same,TGI,[1],53.4 µM
same,GI50,[2],21.2 µM
same,TGI,[2],39.6 µM
same,GI50,[3],> 100000 nM
same,TGI,[3],> 100 µM
same,GI50,[4],22.5 µM
same,TGI,[4],44.5 µM
same,GI50,[5],42.2 µM
same,TGI,[5],> 100 µM
same,GI50,[6],34.4 µM
same,TGI,[6],94 µM
same,GI50,[7],36.7 µM
same,TGI,[7],> 100 µM
same,GI50,[8],22.5 µM
same,TGI,[8],51.9 µM
same,GI50,[9],22.4 µM
same,TGI,[9],69.8 µM
same,GI50,[10],37.1 µM
same,TGI,[10],> 100 µM
same,GI50,[11],15.3 µM
same,TGI,[11],31.3 µM
same,GI50,[12],33.7 µM
same,TGI,[12],79.3 µM
same,GI50,[13],25.9 µM
same,TGI,[13],> 100 µM
same,GI50,[14],19.4 µM
same,TGI,[14],43.6 µM
same,GI50,[15],21.3 µM
same,TGI,[15],44.5 µM
same,GI50,[16],22.1 µM
same,TGI,[16],57.8 µM
same,GI50,[17],30.7 µM
same,TGI,[17],59 µM
same,GI50,[18],20.2 µM
same,TGI,[18],35.3 µM
same,GI50,[19],35.1 µM
same,TGI,[19],> 100 µM
same,GI50,[20],37.3 µM
same,TGI,[20],> 100 µM
same,GI50,[21],14.8 µM
same,TGI,[21],30.3 µM
same,GI50,[22],55.7 µM
same,TGI,[22],> 100 µM
same,GI50,[23],20.3 µM
same,TGI,[23],52.7 µM
same,GI50,[24],19.7 µM
same,TGI,[24],37.2 µM
same,GI50,[25],30 µM
same,TGI,[25],65.6 µM
same,GI50,[26],30.9 µM
same,TGI,[26],73.9 µM
same,GI50,[27],16.7 µM
same,TGI,[27],32.6 µM
same,GI50,[28],16.5 µM
same,TGI,[28],36.1 µM
same,GI50,[29],43.2 µM
same,TGI,[29],> 100 µM
same,GI50,[30],19.9 µM
same,TGI,[30],55.3 µM
same,GI50,[31],25.7 µM
same,TGI,[31],43.6 µM
same,GI50,[32],15.8 µM
same,TGI,[32],32.2 µM
same,GI50,[33],26.7 µM
same,TGI,[33],58.9 µM
same,GI50,[34],18.1 µM
same,TGI,[34],62.5 µM
same,GI50,[35],22.1 µM
same,TGI,[35],38.7 µM
same,GI50,[36],18.3 µM
same,TGI,[36],36.2 µM
same,GI50,[37],16.3 µM
same,TGI,[37],32.8 µM
same,GI50,[38],73.2 µM
same,TGI,[38],> 100 µM
same,GI50,[39],26.2 µM
same,TGI,[39],91.7 µM
same,GI50,[40],20.6 µM
same,TGI,[40],43.5 µM
same,GI50,[41],44.8 µM
same,TGI,[41],> 100 µM
same,GI50,[42],36.2 µM
same,TGI,[42],> 100 µM
same,GI50,[43],43.6 µM
same,TGI,[43],> 100 µM
same,GI50,[44],35.5 µM
same,TGI,[44],> 100 µM
same,GI50,[45],20.3 µM
same,TGI,[45],39 µM
same,GI50,[46],73.2 µM
same,TGI,[46],> 100 µM
same,GI50,[47],35.7 µM
same,TGI,[47],91.8 µM
same,GI50,[48],42.3 µM
same,TGI,[48],> 100 µM
same,GI50,[49],21.1 µM
same,TGI,[49],43.5 µM
same,GI50,[50],68.2 µM
same,TGI,[50],> 100 µM
same,GI50,[51],24.2 µM
same,TGI,[51],57 µM
same,GI50,[52],> 100000 nM
same,TGI,[52],> 100 µM
same,GI50,[53],18.6 µM
same,TGI,[53],45.9 µM
COc1cc(Cl)cc(-c2nn(-c3cccc(NC(=O)c4cccc(C(F)(F)F)c4)c3)cc2-c2ccncc2)c1,GI50,[1],> 100 µM
same,TGI,[1],> 100 µM
same,GI50,[2],8.04 µM
same,TGI,[2],> 100 µM
same,GI50,[3],2780 nM
same,TGI,[3],> 100 µM
same,GI50,[4],4.17 µM
same,TGI,[4],> 100 µM
same,GI50,[5],> 100 µM
same,TGI,[5],> 100 µM
same,GI50,[6],7.69 µM
same,TGI,[6],> 100 µM
same,GI50,[7],> 100 µM
same,TGI,[7],> 100 µM
same,GI50,[8],3.35 µM
same,TGI,[8],> 100 µM
same,GI50,[9],7.21 µM
same,TGI,[9],> 100 µM
same,GI50,[10],> 100 µM
same,TGI,[10],> 100 µM
same,GI50,[11],1.99 µM
same,TGI,[11],> 100 µM
same,GI50,[13],> 100 µM
same,TGI,[13],> 100 µM
same,GI50,[14],5.43 µM
same,TGI,[14],> 100 µM
same,GI50,[15],> 100 µM
same,TGI,[15],> 100 µM
same,GI50,[16],1.38 µM
same,TGI,[16],9.97 µM
same,GI50,[17],1.87 µM
same,TGI,[17],> 100 µM
same,GI50,[18],5.17 µM
same,TGI,[18],> 100 µM
same,GI50,[19],33.7 µM
same,TGI,[19],> 100 µM
same,GI50,[20],3.62 µM
same,TGI,[20],> 100 µM
same,GI50,[21],> 100 µM
same,TGI,[21],> 100 µM
same,GI50,[54],6.66 µM
same,TGI,[54],> 100 µM
same,GI50,[23],2.71 µM
same,TGI,[23],> 100 µM
same,GI50,[24],> 100 µM
same,TGI,[24],> 100 µM
same,GI50,[25],> 100 µM
same,TGI,[25],> 100 µM
same,GI50,[26],3.85 µM
same,TGI,[26],> 100 µM
same,GI50,[27],> 100 µM
same,TGI,[27],> 100 µM
same,GI50,[28],6.74 µM
same,TGI,[28],> 100 µM
same,GI50,[29],4.53 µM
same,TGI,[29],> 100 µM
same,GI50,[30],> 100 µM
same,TGI,[30],> 100 µM
same,GI50,[31],> 100 µM
same,TGI,[31],> 100 µM
same,GI50,[32],6.09 µM
same,TGI,[32],> 100 µM
same,GI50,[33],> 100 µM
same,TGI,[33],> 100 µM
same,GI50,[34],3.13 µM
same,TGI,[34],> 100 µM
same,GI50,[55],4.38 µM
same,TGI,[55],> 100 µM
same,GI50,[35],15.7 µM
same,TGI,[35],> 100 µM
same,GI50,[36],16.7 µM
same,TGI,[36],> 100 µM
same,GI50,[37],6.78 µM
same,TGI,[37],> 100 µM
same,GI50,[38],45.9 µM
same,TGI,[38],> 100 µM
same,GI50,[39],> 100 µM
same,TGI,[39],> 100 µM
same,GI50,[56],3.17 µM
same,TGI,[56],> 100 µM
same,GI50,[40],2.71 µM
same,TGI,[40],> 100 µM
same,GI50,[41],> 100 µM
same,TGI,[41],> 100 µM
same,GI50,[42],> 100 µM
same,TGI,[42],> 100 µM
same,GI50,[43],4.69 µM
same,TGI,[43],> 100 µM
same,GI50,[44],6.88 µM
same,TGI,[44],> 100 µM
same,GI50,[45],5.56 µM
same,TGI,[45],> 100 µM
same,GI50,[46],6.62 µM
same,TGI,[46],> 100 µM
same,GI50,[47],3.37 µM
same,TGI,[47],> 100 µM
same,GI50,[48],3.91 µM
same,TGI,[48],> 100 µM
same,GI50,[49],5.37 µM
same,TGI,[49],> 100 µM
same,GI50,[50],4.69 µM
same,TGI,[50],> 100 µM
same,GI50,[51],> 100 µM
same,TGI,[51],> 100 µM
same,GI50,[52],2480 nM
same,TGI,[52],> 100 µM
same,GI50,[53],> 100 µM
same,TGI,[53],> 100 µM
O=C(C(Cl)Cl)N(O)c1ccccc1OCc1ccccc1,TGI,[1],> 100 µM
same,TGI,[2],92.2 µM
same,TGI,[3],> 100 µM
same,TGI,[4],> 100 µM
same,TGI,[5],78.9 µM
same,TGI,[6],> 100 µM
same,TGI,[7],> 100 µM
same,TGI,[8],> 100 µM
same,TGI,[9],> 100 µM
same,TGI,[10],45.5 µM
same,TGI,[11],82.4 µM
same,TGI,[12],48.8 µM
same,TGI,[13],> 100 µM
same,TGI,[15],> 100 µM
same,TGI,[16],> 100 µM
same,TGI,[17],> 100 µM
same,TGI,[18],> 100 µM
same,TGI,[19],68 µM
same,TGI,[20],> 100 µM
same,TGI,[21],> 100 µM
same,TGI,[54],6.89 µM
same,TGI,[23],> 100 µM
same,TGI,[24],> 100 µM
same,TGI,[25],63.9 µM
same,TGI,[57],> 100 µM
same,TGI,[26],> 100 µM
same,TGI,[27],> 100 µM
same,TGI,[28],> 100 µM
same,TGI,[29],> 100 µM
same,TGI,[30],> 100 µM
same,TGI,[31],> 100 µM
same,TGI,[32],> 100 µM
same,TGI,[33],> 100 µM
same,TGI,[34],69.2 µM
same,TGI,[55],39 µM
same,TGI,[35],> 100 µM
same,TGI,[36],> 100 µM
same,TGI,[37],> 100 µM
same,TGI,[38],> 100 µM
same,TGI,[39],> 100 µM
same,TGI,[56],> 100 µM
same,TGI,[40],> 100 µM
same,TGI,[41],> 100 µM
same,TGI,[42],68.1 µM
same,TGI,[43],51.8 µM
same,TGI,[44],63.5 µM
same,TGI,[45],> 100 µM
same,TGI,[46],> 100 µM
same,TGI,[47],> 100 µM
same,TGI,[48],> 100 µM
same,TGI,[49],> 100 µM
same,TGI,[50],> 100 µM
same,TGI,[51],61.7 µM
same,TGI,[52],> 100 µM
same,TGI,[53],1.43 µM
